According to ChEMBL document CHEMBL4004848, “Dregamine and tabernaemontanine derivatives as ABCB1 modulators on resistant cancer cells” (Eur J Med Chem, 2017):

Key:
[1] = molecular target: T1, ATP-dependent translocase ABCB1 (Homo sapiens, UniProt P08183); experiment: Inhibition of human ABCB1 expressed in mouse L5178Y cells assessed as increase in rhodamine-123 accumulation by measuring side scatter count of cells at 2 uM pretreated for 10 mins followed by rhodamine-123 addition after 20 mins by flow cytometry (reference value: 903); format: cell-based
T1 sequence (P08183 whole entry): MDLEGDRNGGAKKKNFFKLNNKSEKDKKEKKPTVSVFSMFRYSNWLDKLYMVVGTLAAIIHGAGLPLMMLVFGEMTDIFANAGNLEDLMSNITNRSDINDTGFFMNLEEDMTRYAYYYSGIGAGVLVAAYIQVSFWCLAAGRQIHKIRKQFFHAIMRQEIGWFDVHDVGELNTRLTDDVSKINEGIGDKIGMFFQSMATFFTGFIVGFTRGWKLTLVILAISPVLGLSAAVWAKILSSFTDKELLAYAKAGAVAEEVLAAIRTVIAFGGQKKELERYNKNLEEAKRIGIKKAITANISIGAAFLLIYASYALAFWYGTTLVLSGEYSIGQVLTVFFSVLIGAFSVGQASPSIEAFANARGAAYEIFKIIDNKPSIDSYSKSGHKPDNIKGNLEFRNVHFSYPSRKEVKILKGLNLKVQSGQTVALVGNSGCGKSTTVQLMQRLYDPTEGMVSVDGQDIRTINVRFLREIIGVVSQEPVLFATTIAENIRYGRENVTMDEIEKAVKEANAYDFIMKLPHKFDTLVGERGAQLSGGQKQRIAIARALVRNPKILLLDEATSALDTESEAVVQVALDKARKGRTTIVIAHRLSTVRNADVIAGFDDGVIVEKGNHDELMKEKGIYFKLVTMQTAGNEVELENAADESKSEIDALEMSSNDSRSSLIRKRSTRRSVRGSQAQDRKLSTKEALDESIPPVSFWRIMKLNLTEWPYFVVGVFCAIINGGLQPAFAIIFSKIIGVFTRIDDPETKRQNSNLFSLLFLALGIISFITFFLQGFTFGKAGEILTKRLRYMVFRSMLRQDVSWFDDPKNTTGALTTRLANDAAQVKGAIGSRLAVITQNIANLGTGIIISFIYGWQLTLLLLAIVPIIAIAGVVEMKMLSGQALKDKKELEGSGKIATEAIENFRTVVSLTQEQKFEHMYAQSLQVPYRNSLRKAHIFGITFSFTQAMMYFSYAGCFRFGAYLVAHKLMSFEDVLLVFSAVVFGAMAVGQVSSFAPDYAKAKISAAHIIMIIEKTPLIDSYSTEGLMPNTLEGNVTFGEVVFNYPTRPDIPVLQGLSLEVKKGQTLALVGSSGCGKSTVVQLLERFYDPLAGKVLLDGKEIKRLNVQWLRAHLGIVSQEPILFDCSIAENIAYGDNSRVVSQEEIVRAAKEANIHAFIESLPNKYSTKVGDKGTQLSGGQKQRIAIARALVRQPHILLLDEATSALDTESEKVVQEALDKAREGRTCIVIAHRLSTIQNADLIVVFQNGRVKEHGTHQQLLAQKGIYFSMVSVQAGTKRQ

[2] = molecular target: T1, ATP-dependent translocase ABCB1; experiment: Inhibition of human ABCB1 expressed in mouse L5178Y cells assessed as increase in rhodamine-123 accumulation by measuring forward scatter count of cells at 20 uM pretreated for 10 mins followed by rhodamine-123 addition after 20 mins by flow cytometry (reference value: 2206); format: cell-based
[3] = molecular target: T1, ATP-dependent translocase ABCB1; experiment: Inhibition of human ABCB1 expressed in mouse L5178Y cells assessed as fluorescence activity ratio at 20 uM pretreated for 10 mins followed by rhodamine-123 addition after 20 mins by flow cytometry; format: cell-based
[4] = molecular target: T1, ATP-dependent translocase ABCB1; experiment: Inhibition of human ABCB1 expressed in mouse L5178Y cells assessed as increase in rhodamine-123 accumulation by measuring side scatter count of cells at 20 uM pretreated for 10 mins followed by rhodamine-123 addition after 20 mins by flow cytometry (reference value: 903); format: cell-based
NIH3T3 = experiment: Cytotoxicity against mouse NIH/3T3 cells after 24 hrs by MTT assay; format: cell-based; details: NIH3T3, 24 h
L5178Y = experiment: Cytotoxicity against mouse L5178Y cells after 24 hrs by MTT assay; format: functional, cell-based
[5] = molecular target: T1, ATP-dependent translocase ABCB1; experiment: Inhibition of human ABCB1 expressed in mouse L5178Y cells assessed as fluorescence activity ratio at 2 uM pretreated for 10 mins followed by rhodamine-123 addition after 20 mins by flow cytometry; format: cell-based
[6] = molecular target: T1, ATP-dependent translocase ABCB1; experiment: Inhibition of human ABCB1 expressed in mouse L5178Y cells assessed as increase in rhodamine-123 accumulation by measuring forward scatter count of cells at 2 uM pretreated for 10 mins followed by rhodamine-123 addition after 20 mins by flow cytometry (reference value: 2206); format: cell-based
[7] = molecular target: T1, ATP-dependent translocase ABCB1; experiment: Inhibition of human ABCB1 expressed in mouse L5178Y cells pretreated for 10 mins followed by rhodamine-123 addition after 20 mins by flow cytometry; format: cell-based
[8] = Selectivity index, ratio of IC50 for mouse L5178Y cells to IC50 for human ABCB1 expressed in L5178Y cells
[9] = Selectivity index, ratio of IC50 for mouse NIH/3T3 cells to IC50 for mouse L5178Y cells; format: functional
[10] = molecular target: T1, ATP-dependent translocase ABCB1; experiment: Inhibition of human ABCB1 expressed in mouse L5178Y cells assessed as potentiation of doxorubicin-induced cytotoxicity by measuring combination index at 2:25 doxorubicin to compound ratio after 48 hrs by MTT assay; format: cell-based
[11] = molecular target: T1, ATP-dependent translocase ABCB1; experiment: Inhibition of human ABCB1 expressed in mouse L5178Y cells assessed as potentiation of doxorubicin-induced cytotoxicity by measuring combination index at 2:5 doxorubicin to compound ratio after 48 hrs by MTT assay; format: cell-based

| Compound | Activity [1] | Activity [2] | Ratio [3] | Activity [4] | Ratio [5] | Activity [6] | inhibition (INH) [7] | IC50 (NIH3T3) | IC50 (L5178Y) | Ratio IC50 [8] | Ratio IC50 [9] | CI [10] | CI [11] |
| --- | --- | --- | --- | --- | --- | --- | --- | --- | --- | --- | --- | --- | --- |
| CC[C@H]1CN(C)[C@H]2Cc3c(n(C(=O)c4cccc(C)c4)c4ccccc34)C(=O)C[C@H]1[C@@H]2C(=O)OC | 1197 | 2449 | 12.1 | 1204 | 0.95 | 2436 | Dose-dependent effect | > 100 µM | > 100 µM |  |  |  |  |
| CC[C@H]1CN(C)[C@H]2Cc3c(n(CCN(CC)CC)c4ccccc34)C(=O)C[C@H]1[C@@H]2C(=O)OC | 1214 | 2440 | 52.93 | 1192 | 2.56 | 2415 | Dose-dependent effect | > 100 µM | 67.1 µM |  |  |  |  |
| CC[C@@H]1CN(C)[C@H]2Cc3c([nH]c4ccccc34)/C(=N/Nc3ccc(Br)cn3)C[C@H]1[C@@H]2C(=O)OC | 804 | 2225 | 70.82 | 765 | 84.19 | 2294 |  | 83.2 µM | 29.2 µM | 0.78 | 2.85 | 0.19 |  |
| CC[C@H]1CN(C)[C@H]2Cc3c([nH]c4ccccc34)/C(=N/Nc3cnccn3)C[C@H]1[C@@H]2C(=O)OC | 1058 | 2229 | 60.79 | 1038 | 8.49 | 2227 | Dose-dependent effect | > 100 µM | 75 µM | 0.88 |  |  | 0.1 |
| CC[C@H]1CN(C)[C@H]2Cc3c([nH]c4ccccc34)/C(=N/Nc3ccc(Br)cn3)C[C@H]1[C@@H]2C(=O)OC | 1049 | 1947 | 56.22 | 992 | 57.99 | 2152 |  | 86.5 µM | 35.6 µM | 0.89 | 2.43 | 0.28 |  |
| CC[C@@H]1CN(C)[C@H]2Cc3c([nH]c4ccccc34)/C(=N/Nc3ccccc3)C[C@H]1[C@@H]2C(=O)OC | 941 | 2046 | 59.65 | 955 | 5.49 | 2129 | Dose-dependent effect | 19.9 µM | 11.4 µM | 0.67 | 1.74 | 0.2 |  |
| COc1ccc(CCN(C)CCCC(C#N)(c2ccc(OC)c(OC)c2)C(C)C)cc1OC (stereo not drawn) |  | 2611 |  | 1078 |  |  |  |  |  |  |  |  |  |
| CC[C@H]1CN(C)[C@H]2Cc3c(n(C)c4ccccc34)C(=O)C[C@H]1[C@@H]2C(=O)OC | 1214 | 2428 | 46.7 | 1197 | 1.81 | 2435 | Dose-dependent effect | > 100 µM | 40.4 µM | 0.45 |  |  | 0.24 |
| CC[C@@H]1CN(C)[C@H]2Cc3c([nH]c4ccccc34)/C(=N/Nc3cnccn3)C[C@H]1[C@@H]2C(=O)OC | 793 | 2265 | 78.79 | 765 | 10.28 | 2283 | Dose-dependent effect | > 100 µM | 63.9 µM |  |  |  | 0.31 |

More lines, main results first:

| Activity [1] | Activity [2] | Ratio [3] | Activity [4] | Ratio [5] | Activity [6] | inhibition (INH) [7] | Compound | IC50 (NIH3T3) | IC50 (L5178Y) | Ratio IC50 [8] | Ratio IC50 [9] | CI [10] | CI [11] |
| --- | --- | --- | --- | --- | --- | --- | --- | --- | --- | --- | --- | --- | --- |
| 1209 | 2442 | 8.61 | 1203 | 1.08 | 2450 | Dose-dependent effect | CC[C@@H]1CN(C)[C@H]2Cc3c([nH]c4ccccc34)[C@@H](OC(=O)C34CC5CC(CC(C5)C3)C4)C[C@H]1[C@@H]2C(=O)OC | > 100 µM | > 100 µM |  |  |  |  |
| 958 | 2182 | 3.87 | 912 | 0.85 | 2156 | Dose-dependent effect | CC[C@H]1CN(C)[C@H]2Cc3c([nH]c4ccccc34)/C(=N/O)C[C@H]1[C@@H]2C(=O)OC | 35.8 µM | 13 µM | 0.77 | 2.75 |  |  |
| 778 | 2380 | 2.24 | 756 | 1.16 | 2312 | Dose-dependent effect | CC[C@H]1CN(C)[C@H]2Cc3c([nH]c4ccccc34)/C(=N/NC(N)=O)C[C@H]1[C@@H]2C(=O)OC | > 100 µM | > 100 µM |  |  |  |  |
| 1081 | 2240 | 15.35 | 1098 | 1.79 | 2353 | Dose-dependent effect | CC[C@H]1CN(C)[C@H]2Cc3c([nH]c4ccccc34)C(=O)C[C@H]1[C@@H]2C(=O)OC | > 100 µM | 82.4 µM |  |  |  |  |
| 1025 | 2162 | 46.47 | 1037 | 1.93 | 2184 | Dose-dependent effect | CC[C@H]1CN(C)[C@H]2Cc3c([nH]c4ccccc34)/C(=N/N)C[C@H]1[C@@H]2C(=O)OC | > 100 µM | 69.8 µM | 0.95 |  |  |  |
| 1146 | 2180 | 1.38 | 1033 | 0.77 | 2182 | Dose-dependent effect | CC[C@@H]1CN(C)[C@H]2Cc3c([nH]c4ccccc34)C(=O)C[C@H]1[C@@H]2C(=O)OC | > 100 µM | 56.8 µM |  |  |  |  |
| 1226 | 2447 | 18.09 | 1213 | 2.42 | 2440 | Dose-dependent effect | C/C=C/C(=O)O[C@H]1C[C@@H]2[C@@H](CC)CN(C)[C@@H](Cc3c1[nH]c1ccccc31)[C@H]2C(=O)OC | > 100 µM | 90.3 µM |  |  |  |  |
| 793 | 2389 | 2.12 | 770 | 1.04 | 2410 | Dose-dependent effect | CC[C@@H]1CN(C)[C@H]2Cc3c([nH]c4ccccc34)/C(=N/NC(N)=O)C[C@H]1[C@@H]2C(=O)OC | > 100 µM | > 100 µM |  |  |  |  |
| 809 | 2199 | 5.18 | 797 | 1.03 | 2212 | Dose-dependent effect | CC[C@H]1CN(C)[C@H]2Cc3c([nH]c4ccccc34)[C@@H](O)C[C@H]1[C@@H]2C(=O)OC | > 100 µM | > 100 µM |  |  |  |  |
| 789 | 2304 | 7.31 | 781 | 1.26 | 2237 | Dose-dependent effect | CC[C@@H]1CN(C)[C@H]2Cc3c([nH]c4ccccc34)/C(=N/O)C[C@H]1[C@@H]2C(=O)OC | > 100 µM | 60.1 µM | 0.7 |  | 0.36 |  |
| 793 | 2083 | 1.36 | 788 | 0.88 | 2251 | Dose-dependent effect | CC[C@@H]1CN(C)[C@H]2Cc3c([nH]c4ccccc34)[C@@H](O)C[C@H]1[C@@H]2C(=O)OC | > 100 µM | 55.6 µM | 0.66 |  |  | 0.4 |
| 927 | 2172 | 18.46 | 918 | 1.32 | 2191 | Dose-dependent effect | CC[C@@H]1CN(C)[C@H]2Cc3c([nH]c4ccccc34)/C(=N/N)C[C@H]1[C@@H]2C(=O)OC | 95 µM | 46.6 µM | 0.96 | 1.36 |  |  |
